Results: patent US20100093641A1, “SILK PROTEIN-MIMICKING PEPTIDES AND COMPOSITIONS FOR PREVENTING OR TREATING CRANIAL NEUROPATHIES COMPRISING THE SAME” (BRAINGUARD CO.,LTD., priority 2006, published 2010)
No end group written: not given here.

Key:
[1] = tested on: Alzheimer's disease animal models; assay: Passive avoidance test after amyloid beta injection; format: in vivo, rat; settings: amyloid beta injected; 5 mg/kg i.p. for 2 weeks; FIG. 4
Description: This experiment was carried out according to the passive avoidance test to examine whether the SMPs prevents the declines in learning and memory abilities by neurotoxic substances. Before performing learning test, the amyloid beta protein was injected into animals through the ventral lateral region using a stereotaxic system, resulting in establishing Alzheimer's disease animal models. 3-day later, 5 mg/kg of SMPs were intraperitoneally administered for 2 weeks. Automated shuttle box (Model PACS-30, Columbus Instruments International Company) was used as test device. The shuttle box was divided into two rooms with the same area (19″ L×9″ W×10.875″ H) by middle door (3″ L×2.625″ W), and their floors were equipped with current-generating device. Each room might be lighted a 20 W light bulb on hinged plexiglass lid. A white rat might enter a dark room through the door. Noise was control below 60 dB and the test was performed in the dark room. The rat was initially placed in a lighted room and moved to a dark room when the door was opened. At this time, the door was automatically closed and light was turned off. […] Two weeks after injection of the amyloid beta protein through the ventral lateral region (8 nmol/ 5 μl in normal saline), the rat was placed in the lighted room, and time required for the rat to move to the dark room was measured. […]

[2] = tested on: PD animal models having apoptotic dopaminergic neuronal cells by 6-OHDA; assay: Amphetamine-induced asymmetric rotation in 6-OHDA Parkinson's disease animal models; format: in vivo; settings: 6-OHDA mice; SMPs 5 mg/kg intraperitoneally for 2 weeks; FIG. 2
Description: The protection efficacy of the present peptides was tested by behavior experiments using animal models. The mice with damaged dopaminergic neurons by 6-OHDA were administered with amphetamine to induce asymmetric rotation. Then, the present peptides were examined to recover normal states.
5-week old male mice (SAMTAKO, Korea) were used. Four-week old mice were purchased and adapted for one week, followed by establishing animal models using a stereotaxic system (KOFT, CA, USA). In these experiments, 6-OHDA (3 μg/μl in normal saline) was injected into the desired region (0.0 mm posterior to bregma; 2.0 mm lateral to midline; 3.0 mm ventral to the dura) by use of the stereotaxic system, resulting in establishment of animal models. 6-OHDA was injected into substantial nigra in which neurites of dopminergic neurons are connected and sustained death of dopminergic neurons is well induced. Two weeks after 6-OHDA injection, animals were tested for amphetamine-induced turning behavior (amphetamine at 0.1 mg/kg i.p.). The mice were tested for […]. Animals with net rotational asymmetry of at least 400 full turns were selected for test. 5 mg/kg of SMPs were intraperitoneally administered for 2 weeks and their effects were examined by behavior tests. The asymmetric rotation was rapidly relieved with the lapse of time.

dopaminergic neurons = assay: Dopaminergic neuronal cell death induced by 6-OHDA, methyl green histochemical staining; format: in vivo; settings: 6-OHDA injected mice; SMPs 5 mg/kg intraperitoneally for 2 weeks; FIG. 1
Description: To analyze neuroprotective effects of the present peptides SMPs, their influence on the death of dopaminergic neurons, a main cause of Parkinson's disease, was tested. 6-OHDA (6-hydroxydopamine) was injected into brain tissues using a stereotaxic system and the death of dopaminergic neurons was observed by histochemcial staining.
5-week old male mice (SAMTAKO, Korea) were used. Four-week old mice were purchased and adapted for one week, followed by inducing the death of neuronal cells using a stereotaxic system (KOFT, CA, USA). In these experiments, 6-OHDA (3 μg/μl in normal saline) was injected into the desired region (0.0 mm posterior to bregma; 2.0 mm lateral to midline; 3.0 mm ventral to the dura) by use of the stereotaxic system, resulting in establishment of animal models. 6-OHDA was injected into substantial nigra in which neurites of dopminergic neurons are connected and sustained death of dopminergic neurons is well induced. After injection of 6-OHDA, 5 mg/kg of SMPs were intraperitoneally administered for 2 weeks. Thereafter, the test mice were fixed using 4% paraformaldehyde. Following the dissection of brain tissues from test mice, they were washed with PBS containing 4% paraformaldehyde for 24 hr and then dehydrated for 4 days using 15%, 20%, 25% and 30% sucrose solutions. The brain tissues were sliced by a freezing microtome. […]

p-Akt = p-Akt level on electrophoresis under high glucose; format: cell-based, human; settings: 35 mM glucose; FIG. 9b
Description: To identify molecular mechanisms governing neuroprotective activities of the present peptides on apoptosis of neuronal cells caused by high glucose level, p-Akt and p-JNK were analyzed on electrophoresis.

SK-N-SH neuronal cells = assay: Neuronal damage caused by high glucose level; format: cell-based, human; settings: 35 mM glucose, 3 hr; FIG. 9a
Description: Diabetes characterized by high level of glucose causes events to damage cells and tissues. This experiment is to analyze neuroprotective activities of SMPs on SK—N—SH neuronal cells in high level of glucose (35 mM).

SK-N-SH cells [3] = assay: MTT reduction cell viability against amyloid beta; format: cell-based, human; settings: 10 fM for 2 hr before amyloid beta, 48 hr; FIG. 6b
Description: The survival rate and nuclear fragmentation of neuronal cells indicating apoptosis of neuron were examined to verify the neuroprotective effects of SMPs against neurotoxic effects of the amyloid beta protein. For identifying mechanisms governing the protective effects against amyloid beta in animal tests, neurotoxic effects and nuclear damages in neuronal cell lines were examined. The substance “cosmo” used in this experiment was obtained by a preparation process identical to that for the substance MD.
The MTT reduction analysis was carried out. The human neuroblastoma cells, SK—N—SH cells (ATCC) were plated on PEI-coated 96-well plates at a density of 40,000 cells/well. The cells were cultured in DMEM supplemented with 10% FBS (fetal bovine serum). 2-hr before experiments, the medium was changed with low serum medium (DMEM with 1% FBS) and the cells were incubated with each test substance. […] Formazan precipitates formed by MTT reduction were dissolved in the solution (0.1 N HCl in anhydrous isopropanol), and absorbance at 570 nm was determined by ELISA
Reader. The value of the control group (only containing solvent) was determined as 100% and that of 0.9% Triton X-100-treated group as 0%. The value of each sample was relatively determined with referring the reference values.

SK-N-SH cells [4] = assay: Reactive oxygen species by DCF-DA staining against amyloid beta; format: cell-based, human; settings: 10 fM for 2 hr, then 20 μM amyloid beta; FIG. 7a
Description: For identifying molecular mechanisms governing neuroprotective effects of the present peptides, reactive oxygen species (ROS) known to involve in neurotoxicity of amyloid beta were analyzed. Using a DCF-DA staining method, quantitative determination of reactive oxygen species was performed and microscopic observation was performed.
SK—N—SH cells (ATCC) were first treated with 10 fM SMPs for 2 hr and then with 20 μM amyloid beta protein. Afterwards, cells were incubated for 30 min at 37° C. with 10 μM DCF-DA (6-carboxy-2′,7′-dichloro-dihydrofluoresceine diacetate, dicarboxym-ethylester) dissolved in HCSS buffer solution (20 mM HEPES, 2.3 mM CaCl2, 120 mM NaCl, 10 mM NaOH, 5 mM KC1, 1.6 mM MgCl2, 15 mM glucose) and 2% Pluronic F-127 (suspension additive).

SK-N-SH cells [5] = assay: Nuclear fragmentation by Hoechst 33258 staining against amyloid beta; format: cell-based, human; settings: 10 fM for 2 hr, then 20 μM amyloid beta for 24 hr; FIG. 6a
Description: The morphological changes of nuclear chromosomes by amyloid beta were observed by staining with DNA-binding fluorochrome bis-benz (Hoechst 33258 dye). SK—N—SH cells were incubated with 10 fM SMPs for 2 hr and then with 20 μM amyloid beta for 24 hr. 0.5-3.0×10^6 cells treated were centrifuged at 300×g for 10 min and washed with PBS, followed by fixation with 50 μl paraformaldehyde for 10 min at room temperature. After washing with PBS, cells were incubated with 16 μg/ml bis-benzimide in PBS (15 μl) for 15 min at room temperature and their 10 μl-aliquot was placed on a slid glass, followed by the observation of apoptotic nuclear chromosome under a fluorescence microscope.

SK-N-SH cells [6] = assay: Mitochondrial membrane potential by TMRE staining against amyloid beta; format: cell-based, human; settings: 10 fM for 2 hr, then 20 μM amyloid beta for 6 hr; FIGS. 8a-8c
Description: We examined the influence of the present peptides on subcellular mitochondria to play a crucial role in cellular energy generation. It have been already reported that the amyloid beta protein induces elevation of reactive oxygen species in cells and simultaneously results in nuclear fragmentation, dysfunction of mitochondrial membrane and loss of mitochondrial functions. In this regard, we examined the influence of the present peptides on mitochondrial functions relating closely to cell viability.
Using a fluorescent staining with TMRE (tetramethyl rhodamine-ethylester, Molecular Probe), the disruption of mitochondrial membrane potential was measured. The positively charged TMRE is penetrated into mitochondrial membrane with help of mitochondrial membrane potential, and the fluorescent intensities indicate the maintenance of mitochondrial membrane potential. SK—N—SH cells (ATCC) were first treated with 10 fM SMPs for 2 hr and then with 20 μM amyloid beta protein for 6 hr. Afterwards, cells were incubated for 15 min at 37° C. with 100 nM TMRE and the fluorescent intensities were measured using a fluoremetry at excitation wavelength of 549 nm and emission wavelength of 574 nm. The fluorescent images were taken using a fluorescence microscope (Olympus IX70) and CCD camera.

Molecule | decline in learning and memory abilities (passive avoidance) [1] | relief of behavior disorders (amphetamine-induced asymmetric rotation) [2] | prevention of death of dopaminergic neurons (neurotoxicity of 6-OHDA) (dopaminergic neurons) | level of p-Akt (p-Akt) | inhibition of apoptosis caused by high glucose level (SK-N-SH neuronal cells) | inhibition of apoptosis of neuronal cells (cell viability, MTT) (SK-N-SH cells [3]) | levels of reactive oxygen species (SK-N-SH cells [4]) | nuclear fragmentation (SK-N-SH cells [5]) | abnormality of mitochondrial membrane (TMRE fluorescence) (SK-N-SH cells [6]) | effect on reactive oxygen species compared to oligo 1 (SK-N-SH cells [4])
COc1ccc2[nH]cc(CCNC(C)=O)c2c1 [melatonin] | prevent the decline in learning and memory abilities | contribute to the relief of behavior disorders | effectively prevented |  |  |  |  |  |  | 
GAGAGVGY [SMP-1, GAGAGVGY] |  |  |  | highest level of p-Akt | effectively inhibits apoptosis | dramatically inhibit apoptosis of neuronal cells | decrease in levels of reactive oxygen species at similar extent | greatly decreased | little or no abnormality of mitochondrial membrane | 
GVGAGY [SMP-4, GVGAGY] |  |  |  |  | effectively inhibits apoptosis | dramatically inhibit apoptosis of neuronal cells | decrease in levels of reactive oxygen species at similar extent | greatly decreased | little or no abnormality of mitochondrial membrane | a little enhanced effects compared to the oligo 1
